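Step 1: Grow cells in 96-well plates. Step 2: Expose to compound for 48 hours at 5 concentrations. Step 3: Interpolate endpoints linearly; if unreached, use highest concentration. GI50 marks 50% less growth.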 Active and inactive are the calls of the source. No stated cut-off is given here; in the data, active = GI50 up to about 1.1 µM and inactive = higher.
Tests used:
Assay in all cases: inhibition of tumour cell growth, NCI panel, 48 h
EKVX = tested on: EKVX
RXF 393 = tested on: RXF 393
Malme-3M = tested on: Malme-3M
HOP-62 = tested on: HOP-62
OVCAR-4 = tested on: OVCAR-4
SN12C = tested on: SN12C
SW-620 = tested on: SW-620
A549 = tested on: A549
Hs-578T = tested on: Hs-578T
HL-60 = tested on: HL-60
MCF7 = tested on: MCF7
RPMI-8226 = tested on: RPMI-8226
SF-295 = tested on: SF-295
CCRF-CEM = tested on: CCRF-CEM
NCI-H522 = tested on: NCI-H522
MDA-N = tested on: MDA-N
KM12 = tested on: KM12
XF498 = tested on: XF498
HOP-92 = tested on: HOP-92
UACC-257 = tested on: UACC-257

N#CCCC1C(C#N)C2(Cl)CC1(Cl)C(Cl)=C2Cl (centres undefined)
GI50 (EKVX): > 10 µM (inactive) | GI50 (RXF 393): > 10 µM (inactive) | GI50 (Malme-3M): > 10 µM (inactive) | GI50 (HOP-62): > 10 µM (inactive) | GI50 (OVCAR-4): > 10 µM (inactive) | GI50 (SN12C): > 10 µM (inactive) | GI50 (SW-620): > 10 µM (inactive) | GI50 (A549): > 10 µM (inactive) | GI50 (Hs-578T): > 10 µM (inactive) | GI50 (HL-60): > 10 µM (inactive) | GI50 (MCF7): > 10 µM (inactive) | GI50 (RPMI-8226): > 10 µM (inactive) | GI50 (SF-295): > 10 µM (inactive) | GI50 (CCRF-CEM): > 10 µM (inactive) | GI50 (NCI-H522): 3.59 µM (inactive) | GI50 (MDA-N): > 10 µM (inactive) | GI50 (KM12): > 10 µM (inactive)

CC1(C)CCc2cc3c(-c4ccccc4)cc(=O)oc3cc2O1
GI50 (EKVX): > 100 µM (inactive) | GI50 (Malme-3M): > 100 µM (inactive) | GI50 (XF498): 41 µM (inactive) | GI50 (SN12C): > 100 µM (inactive) | GI50 (SW-620): > 100 µM (inactive) | GI50 (HL-60): > 100 µM (inactive) | GI50 (RPMI-8226): > 100 µM (inactive) | GI50 (SF-295): 48.3 µM (inactive) | GI50 (CCRF-CEM): > 100 µM (inactive) | GI50 (NCI-H522): > 100 µM (inactive) | GI50 (HOP-92): 21.1 µM (inactive)

COC(c1ccc(C(C)(C)C)cc1)(c1ccc(C(C)(C)C)cc1)c1cc(C(O)(c2cc(C(OC)(c3ccc(C(C)(C)C)cc3)c3ccc(C(C)(C)C)cc3)c(C)cc2C)c2cc(C(OC)(c3ccc(C(C)(C)C)cc3)c3ccc(C(C)(C)C)cc3)c(C)cc2C)c(C)cc1C
GI50 (EKVX): > 100 µM (inactive) | GI50 (RXF 393): > 100 µM (inactive) | GI50 (Malme-3M): > 100 µM (inactive) | GI50 (HOP-62): > 100 µM (inactive) | GI50 (OVCAR-4): > 100 µM (inactive) | GI50 (SW-620): > 100 µM (inactive) | GI50 (A549): > 100 µM (inactive) | GI50 (Hs-578T): > 100 µM (inactive) | GI50 (HL-60): > 100 µM (inactive) | GI50 (MCF7): > 100 µM (inactive) | GI50 (SF-295): > 100 µM (inactive) | GI50 (CCRF-CEM): > 100 µM (inactive) | GI50 (MDA-N): > 100 µM (inactive) | GI50 (HOP-92): > 100 µM (inactive) | GI50 (UACC-257): > 100 µM (inactive)

CCOC(=O)c1csc(NC(=O)CN(C)C)n1
GI50 (EKVX): > 100 µM (inactive) | GI50 (RXF 393): > 100 µM (inactive) | GI50 (HOP-62): > 100 µM (inactive) | GI50 (OVCAR-4): > 100 µM (inactive) | GI50 (SW-620): > 100 µM (inactive) | GI50 (A549): > 100 µM (inactive) | GI50 (Hs-578T): > 100 µM (inactive) | GI50 (HL-60): > 100 µM (inactive) | GI50 (MCF7): > 100 µM (inactive) | GI50 (RPMI-8226): > 100 µM (inactive) | GI50 (SF-295): > 100 µM (inactive) | GI50 (CCRF-CEM): > 100 µM (inactive) | GI50 (MDA-N): > 100 µM (inactive) | GI50 (HOP-92): > 100 µM (inactive) | GI50 (KM12): > 100 µM (inactive) | GI50 (UACC-257): > 100 µM (inactive)

O=c1c2ccccc2[nH]c2cc(O)cc(O)c12
GI50 (RXF 393): > 100 µM (inactive) | GI50 (Malme-3M): 56.8 µM (inactive) | GI50 (XF498): 27.9 µM (inactive) | GI50 (OVCAR-4): > 100 µM (inactive) | GI50 (SN12C): 61.4 µM (inactive) | GI50 (A549): 92.5 µM (inactive) | GI50 (HL-60): > 100 µM (inactive) | GI50 (SF-295): 42.9 µM (inactive) | GI50 (CCRF-CEM): 49 µM (inactive) | GI50 (NCI-H522): 16.9 µM (inactive) | GI50 (KM12): 34.9 µM (inactive) | GI50 (UACC-257): 45 µM (inactive)

CCOc1ccc(C(C)c2cc3c(cc2OC)OCO3)cc1 (centres undefined)
GI50 (RXF 393): 0.222 µM (active) | GI50 (Malme-3M): 0.457 µM (active) | GI50 (HOP-62): 0.323 µM (active) | GI50 (XF498): 0.256 µM (active) | GI50 (OVCAR-4): > 100 µM (inactive) | GI50 (SN12C): 0.484 µM (active) | GI50 (SW-620): 0.259 µM (active) | GI50 (A549): 0.455 µM (active) | GI50 (RPMI-8226): 0.427 µM (active) | GI50 (SF-295): 0.0828 µM (active) | GI50 (NCI-H522): 0.0316 µM (active) | GI50 (HOP-92): 0.855 µM (active) | GI50 (UACC-257): 0.767 µM (active)
